What was measured:
[1] = target: T1, NIH-3T3 cells overexpressing human IGF-1R (Homo sapiens, UniProt P08069); assay: IGF-1R cellular autophosphorylation (DELFIA); assay type: cell-based
T1 construct: expressed in transfected cells; host or cells: NIH-3T3 (mouse fibroblasts)
Outline: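 Receptor autophosphorylation measured by DELFIA, capturing IGF-1R or IRβ and detecting with europium anti-pTyr, reported as percent of IGF-1- or insulin-stimulated signal. Compounds (30 uM to 1.5 nM) added 2 h before ligand, then 15 min stimulation (IGF-1 30 ng/ml or insulin 3 ug/ml).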

[2] = target: ALK (Homo sapiens, UniProt Q9UM73); assay: ALK enzyme assay (HTRF); assay type: biochemical; conditions: 0.25 nM ALK, 15.0 μM ATP, values given as pIC50 category
ALK, sequence (Q9UM73 19-1620): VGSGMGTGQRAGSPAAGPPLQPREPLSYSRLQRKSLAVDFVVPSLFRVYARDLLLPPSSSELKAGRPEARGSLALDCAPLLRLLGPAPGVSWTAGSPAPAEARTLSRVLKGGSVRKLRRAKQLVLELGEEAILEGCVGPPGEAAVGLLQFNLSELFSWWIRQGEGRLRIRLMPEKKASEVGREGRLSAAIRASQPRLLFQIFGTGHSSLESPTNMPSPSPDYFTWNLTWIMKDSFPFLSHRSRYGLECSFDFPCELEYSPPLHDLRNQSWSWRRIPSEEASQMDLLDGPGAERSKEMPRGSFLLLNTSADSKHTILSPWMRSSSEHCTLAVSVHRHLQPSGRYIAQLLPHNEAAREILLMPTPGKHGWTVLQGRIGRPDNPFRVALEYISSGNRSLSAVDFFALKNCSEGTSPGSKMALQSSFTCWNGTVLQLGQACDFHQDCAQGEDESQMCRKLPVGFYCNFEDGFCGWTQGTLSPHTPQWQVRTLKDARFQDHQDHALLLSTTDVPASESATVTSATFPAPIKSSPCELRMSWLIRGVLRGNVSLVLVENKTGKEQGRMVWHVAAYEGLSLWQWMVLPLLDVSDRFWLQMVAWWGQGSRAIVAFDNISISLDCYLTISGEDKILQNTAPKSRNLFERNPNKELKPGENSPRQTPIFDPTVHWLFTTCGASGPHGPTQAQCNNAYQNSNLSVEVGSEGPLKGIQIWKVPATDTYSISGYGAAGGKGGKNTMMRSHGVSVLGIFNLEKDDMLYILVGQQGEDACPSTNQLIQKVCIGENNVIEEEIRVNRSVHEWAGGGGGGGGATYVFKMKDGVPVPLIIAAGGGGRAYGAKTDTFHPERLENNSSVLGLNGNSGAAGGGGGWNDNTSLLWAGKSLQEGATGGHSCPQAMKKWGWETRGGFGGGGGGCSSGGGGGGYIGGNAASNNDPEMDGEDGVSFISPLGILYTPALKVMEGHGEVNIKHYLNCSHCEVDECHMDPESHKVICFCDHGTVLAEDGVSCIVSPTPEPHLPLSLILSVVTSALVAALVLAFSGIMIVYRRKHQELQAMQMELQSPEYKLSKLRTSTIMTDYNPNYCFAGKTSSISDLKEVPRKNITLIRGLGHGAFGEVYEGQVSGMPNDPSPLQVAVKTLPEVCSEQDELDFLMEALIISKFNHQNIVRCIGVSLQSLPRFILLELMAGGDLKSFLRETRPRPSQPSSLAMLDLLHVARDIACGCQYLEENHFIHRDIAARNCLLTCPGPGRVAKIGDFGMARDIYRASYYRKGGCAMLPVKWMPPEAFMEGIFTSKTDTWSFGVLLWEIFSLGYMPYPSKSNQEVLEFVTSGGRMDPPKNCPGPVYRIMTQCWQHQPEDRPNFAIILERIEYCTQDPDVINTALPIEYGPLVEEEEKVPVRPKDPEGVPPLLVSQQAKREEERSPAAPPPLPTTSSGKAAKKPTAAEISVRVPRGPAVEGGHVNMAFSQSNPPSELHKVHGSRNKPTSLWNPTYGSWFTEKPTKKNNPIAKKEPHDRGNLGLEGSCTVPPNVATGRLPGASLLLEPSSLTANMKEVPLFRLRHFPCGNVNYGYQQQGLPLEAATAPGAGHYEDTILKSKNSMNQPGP
Outline: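 Isolated ALK phosphorylates a biotinylated tyrosine peptide, 120 min at 20° C; anti-phosphotyrosine Eu-cryptate/streptavidin-XL665 HTRF read after 60 min with EDTA-containing detection mix.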

[3] = target: T2, NIH-3T3 cells overexpressing human IR (Homo sapiens, UniProt P06213); assay: IR cellular autophosphorylation (DELFIA); assay type: cell-based; conditions: 2 h compound, insulin 3 ug/ml for 15 minutes, IC50 category
T2 construct: expressed in transfected cells; host or cells: NIH-3T3 (mouse fibroblasts)
T2 sequence (P06213 28-1382): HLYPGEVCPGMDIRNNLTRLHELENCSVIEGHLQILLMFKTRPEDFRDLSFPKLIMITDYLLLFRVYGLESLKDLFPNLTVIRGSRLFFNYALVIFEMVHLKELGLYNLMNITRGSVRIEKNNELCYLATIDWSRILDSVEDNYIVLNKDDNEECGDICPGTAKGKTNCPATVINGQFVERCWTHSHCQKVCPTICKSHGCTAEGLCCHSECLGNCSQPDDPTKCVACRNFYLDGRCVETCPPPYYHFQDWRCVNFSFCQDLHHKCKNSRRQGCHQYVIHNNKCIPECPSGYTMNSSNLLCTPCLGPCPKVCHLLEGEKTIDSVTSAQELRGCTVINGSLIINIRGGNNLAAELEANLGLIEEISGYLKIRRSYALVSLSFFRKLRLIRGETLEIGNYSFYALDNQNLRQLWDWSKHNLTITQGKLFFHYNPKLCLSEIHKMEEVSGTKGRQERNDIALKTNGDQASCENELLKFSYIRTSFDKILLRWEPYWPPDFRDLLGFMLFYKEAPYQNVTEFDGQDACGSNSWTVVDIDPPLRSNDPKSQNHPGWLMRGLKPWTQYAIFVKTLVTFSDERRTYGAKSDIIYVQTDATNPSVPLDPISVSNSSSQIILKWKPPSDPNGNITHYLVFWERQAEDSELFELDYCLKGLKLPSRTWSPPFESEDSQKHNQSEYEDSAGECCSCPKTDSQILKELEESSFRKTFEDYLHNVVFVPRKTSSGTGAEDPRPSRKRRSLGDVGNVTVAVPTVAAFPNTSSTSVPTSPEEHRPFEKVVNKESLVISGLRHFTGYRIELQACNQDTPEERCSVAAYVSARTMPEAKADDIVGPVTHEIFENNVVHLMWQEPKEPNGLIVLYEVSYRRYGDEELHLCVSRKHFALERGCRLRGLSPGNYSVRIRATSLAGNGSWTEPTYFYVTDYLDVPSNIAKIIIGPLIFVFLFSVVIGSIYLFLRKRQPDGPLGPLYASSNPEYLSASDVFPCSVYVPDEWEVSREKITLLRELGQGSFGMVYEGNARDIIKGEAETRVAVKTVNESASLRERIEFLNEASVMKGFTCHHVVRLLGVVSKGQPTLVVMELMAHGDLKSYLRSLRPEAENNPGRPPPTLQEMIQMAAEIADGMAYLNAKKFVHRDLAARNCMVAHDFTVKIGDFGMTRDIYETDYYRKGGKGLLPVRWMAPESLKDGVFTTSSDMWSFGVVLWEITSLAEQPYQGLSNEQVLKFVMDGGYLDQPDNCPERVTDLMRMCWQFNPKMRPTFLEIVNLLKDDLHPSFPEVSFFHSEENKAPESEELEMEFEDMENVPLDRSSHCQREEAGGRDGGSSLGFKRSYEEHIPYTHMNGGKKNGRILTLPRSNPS
Experimental: NIH-3T3 cells overexpressing human IGF-1R or IR were plated in 96-well plates (10,000 cells/well) in culture media containing 10% fetal bovine serum and incubated at 37° C. in a 5% CO2 incubator. Twenty four hours post-plating, cells were treated with different concentrations of test compounds ranging from 30 uM to 1.5 nM. Two hours after compound addition, cells were stimulated with either human IGF-1 (30 ng/ml) or insulin (3 ug/ml) for 15 minutes. Cell lysates are analyzed for phosphorylated receptors using dissociation enhanced lanthanide fluor-immuno assay (DELFIA) with anti-IGF-1R (MAB391, R&D Systems, Minneapolis, Minn.) or anti-IRβ (sc-711, Santa Cruz Biotechnology, Santa Cruz, Calif.) capture antibody and europium-labeled anti-pTyr antibody (Eu-N1 PT66, Perkin Elmer, Waltham, Mass.) for detection. The fluorescence signal for cells treated with compounds was expressed as percent relative to 100% stimulation (IGF-1 or insulin stimulated signal).

[4] = target: T3, human IGF1R (hIGF1R) (Homo sapiens, UniProt P08069); assay: TR-FRET kinase assay of purified hIGF1R; assay type: biochemical; conditions: activated hIGF1R 0.5 nM, 10 μM ATP, values given as pIC50 category, read-out: IGF-1R pIC50 (converted)
T3 construct: containing amino acid residues 957-1367 of human IGF1R; made in house; host or cells: Sf9 cells (baculovirus)
T3 sequence (P08069 957-1367): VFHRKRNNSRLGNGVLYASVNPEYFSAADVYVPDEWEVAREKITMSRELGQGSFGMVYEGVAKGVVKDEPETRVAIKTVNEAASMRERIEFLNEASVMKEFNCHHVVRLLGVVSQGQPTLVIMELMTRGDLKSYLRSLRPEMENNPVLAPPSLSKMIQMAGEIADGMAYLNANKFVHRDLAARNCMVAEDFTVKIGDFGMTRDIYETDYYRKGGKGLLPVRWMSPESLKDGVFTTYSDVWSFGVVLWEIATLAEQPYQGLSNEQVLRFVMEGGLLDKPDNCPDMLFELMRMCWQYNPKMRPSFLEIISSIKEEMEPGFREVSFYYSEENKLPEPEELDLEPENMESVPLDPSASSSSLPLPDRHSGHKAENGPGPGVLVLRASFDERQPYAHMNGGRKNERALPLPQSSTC

[5] = target: T4, human IR (hIR) (Homo sapiens, UniProt P06213); assay: TR-FRET kinase assay of purified hIR; assay type: biochemical; conditions: activated hIR 0.5 nM, 10 μM ATP, values given as pIC50 category
T4 construct: containing amino acid residues 979-1382 of human IR; made in house; host or cells: Sf9 cells (baculovirus), same process as hIGF1R
T4 sequence (P06213 979-1382): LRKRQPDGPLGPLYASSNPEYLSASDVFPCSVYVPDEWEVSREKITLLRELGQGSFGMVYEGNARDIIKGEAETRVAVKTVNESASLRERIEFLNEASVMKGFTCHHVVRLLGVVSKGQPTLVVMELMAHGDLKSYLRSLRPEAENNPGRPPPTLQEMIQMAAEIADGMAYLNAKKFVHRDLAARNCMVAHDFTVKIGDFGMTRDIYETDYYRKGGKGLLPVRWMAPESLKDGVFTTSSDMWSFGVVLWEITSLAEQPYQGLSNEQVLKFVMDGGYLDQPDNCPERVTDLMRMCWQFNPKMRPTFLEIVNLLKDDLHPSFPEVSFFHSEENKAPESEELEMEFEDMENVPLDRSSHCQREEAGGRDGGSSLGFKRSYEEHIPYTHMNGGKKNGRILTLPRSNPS

[6] = system: Colo205; assay: Inhibition of cell proliferation (CellTiter-Glo or InCell analyzer), Colo205; assay type: cell-based; conditions: Homo sapiens, COLO 205, 72 h / 3 days, values given as IC50 category
Experimental: Cell proliferation was measured by either CellTiter-Glo (measures cellular ATP level as a surrogate for total cell number) or by InCell analyzer (counts number of nuclei as a measure of cell number).
For CellTiter-Glo assay, exponentially growing cell lines of different tumor origins, cultured in appropriate media containing 10% fetal bovine serum at 37° C. in a 5% CO2 incubator, were plated at low density (less than 2000cells/well) in 96-well plates. Twenty four hours post-plating, cells were treated with different concentrations of test compounds ranging from 30 uM to 1.5 nM. Several wells were left untreated as a control. Seventy two hours post-treatment, cell numbers were determined using 50-100 ul per well of CellTiter-Glo (Promega #G7573). Plates were incubated at 37° C. for 30 minutes and the chemiluminescent signal was read on the Victor V or Envison 2100 reader.
For InCell Analyser assay, various cell lines of different tumor origins were grown to 70-80% confluency in appropriate culture media containing 10% fetal bovine serum at 37° C. in a 5% CO2 incubator. On day −1, cells were seeded at 2 densities in 384-well plates and incubated at 37° C. overnight. Stock compound plates were prepared in advance which contained dimethyl sulfoxide (DMSO) alone and a 9-point half-log decreasing dose range of the compound in DMSO. The compound plates were stored at −80° C. and each plate was only thawed once and used. On day 0, the main assay plates received compound or DMSO via a sonic delivery system (ECHO). The highest final concentration of compound of the dose range in the culture plates was 10 uM. These plates were cultured at 37° C. for 3 days. […] On day 3, the compound treated plates were stained and fixed to measure proliferation, apoptosis, and mitotic index using an InCelL1000 analyser. A nuclear stain was used to identify cells in the wells. By counting the number of nuclei, the proliferation index of compound treated groups were calculated as a percentage relative to the DMSO control, which was set to 100%. The IC50 values were calculated using model 205 in ExcelFit.
IC50 (nM) values for compounds of select examples were categorized by relative inhibition of cell proliferation.

T1 sequence (P08069 31-1367): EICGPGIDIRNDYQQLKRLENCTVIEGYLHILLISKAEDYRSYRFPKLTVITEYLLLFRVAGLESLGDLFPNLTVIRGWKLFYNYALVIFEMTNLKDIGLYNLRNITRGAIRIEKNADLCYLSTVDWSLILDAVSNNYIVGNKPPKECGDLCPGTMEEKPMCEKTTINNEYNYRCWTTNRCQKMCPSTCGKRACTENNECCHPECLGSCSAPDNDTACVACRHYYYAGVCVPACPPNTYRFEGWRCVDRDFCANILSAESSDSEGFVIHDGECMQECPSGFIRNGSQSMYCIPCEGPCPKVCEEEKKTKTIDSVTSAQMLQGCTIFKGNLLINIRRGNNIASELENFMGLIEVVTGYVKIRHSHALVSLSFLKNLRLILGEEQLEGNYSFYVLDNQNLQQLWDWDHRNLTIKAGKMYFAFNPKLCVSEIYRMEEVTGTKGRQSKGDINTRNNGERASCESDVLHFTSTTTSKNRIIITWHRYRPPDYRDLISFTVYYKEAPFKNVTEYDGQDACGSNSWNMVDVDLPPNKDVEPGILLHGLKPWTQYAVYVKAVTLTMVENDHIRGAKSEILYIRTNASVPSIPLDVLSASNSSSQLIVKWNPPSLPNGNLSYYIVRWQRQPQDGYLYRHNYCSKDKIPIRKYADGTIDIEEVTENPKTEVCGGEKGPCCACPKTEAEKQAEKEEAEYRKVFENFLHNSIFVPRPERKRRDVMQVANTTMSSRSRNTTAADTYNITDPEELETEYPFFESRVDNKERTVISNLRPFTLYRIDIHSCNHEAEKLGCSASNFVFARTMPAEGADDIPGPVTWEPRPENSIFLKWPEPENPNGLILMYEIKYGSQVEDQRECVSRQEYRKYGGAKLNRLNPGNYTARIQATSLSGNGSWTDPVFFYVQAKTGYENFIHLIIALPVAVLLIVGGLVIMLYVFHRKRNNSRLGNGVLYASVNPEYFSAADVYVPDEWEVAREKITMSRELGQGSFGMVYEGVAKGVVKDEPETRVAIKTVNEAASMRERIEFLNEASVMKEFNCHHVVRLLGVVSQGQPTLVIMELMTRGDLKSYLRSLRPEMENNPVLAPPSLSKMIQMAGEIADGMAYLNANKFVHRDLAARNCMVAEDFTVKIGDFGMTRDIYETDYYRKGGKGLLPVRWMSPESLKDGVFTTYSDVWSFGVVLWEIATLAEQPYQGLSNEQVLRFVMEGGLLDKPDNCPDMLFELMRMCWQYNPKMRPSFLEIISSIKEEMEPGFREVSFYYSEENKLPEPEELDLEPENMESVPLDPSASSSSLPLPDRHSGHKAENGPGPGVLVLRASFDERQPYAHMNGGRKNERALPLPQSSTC

Structure (SMILES)	IC50 [1] [nM]	IC50 [2] [nM]	IC50 [3] [nM]	IC50 [4] [nM]	IC50 [5] [nM]	IC50 [6] [nM]
COc1cc2c(cc1Nc1nc(Nc3cccc(F)c3C(N)=O)c3cc[nH]c3n1)N(C(=O)CN(C)C)[C@@H](C)C2 [Example 249, 2-[(2-{[(2S)-1-(N,N-dimethylglycyl)-2-methyl-5-(methyloxy)-2,3-dihydro-1H-indol-6-yl]amino}-1H-pyrrolo[2,3-d]pyrimidin-4-yl)amino]-6-fluorobenzamide]	< 100	1.26 to 3.98	< 100	0.251 to 1	0.251 to 1	
COc1cc(C)c(N(C)C(=O)CN(C)C)cc1Nc1nc(Nc2cccc(F)c2C(N)=O)c2cc[nH]c2n1 [Example 255, 2-[(2-{[5-[(N,N-dimethylglycyl)(methyl)amino]-4-methyl-2-(methyloxy)phenyl]amino}-1H-pyrrolo[2,3-d]pyrimidin-4-yl)amino]-6-fluorobenzamide]	> 500	5.01 to 200	> 500	5.01 to 200	5.01 to 158	
Cc1ccc(NC(=O)CN(C)C)cc1Nc1nc(Nc2ccccc2C(=O)NCc2ccc(F)cc2)c2cc[nH]c2n1 [Example 27, 2-{[2-({5-[(N,N-dimethylglycyl)amino]-2-methylphenyl}amino)-1H-pyrrolo[2,3-d]pyrimidin-4-yl]amino}-N-[(4-fluorophenyl)methyl]benzamide]	> 500	5.01 to 200	> 500	5.01 to 200	1.26 to 3.98	
CNC(=O)c1c(F)cc(Cl)cc1Nc1nc(Nc2cc3c(cc2OC)CCN3C(=O)CN(C)C)nc2[nH]ccc12 [Example 120, 4-chloro-2-[(2-{[1-(N,N-dimethylglycyl)-5-(methyloxy)-2,3-dihydro-1H-indol-6-yl]amino}-1H-pyrrolo[2,3-d]pyrimidin-4-yl)amino]-6-fluoro-N-methylbenzamide]	100 to 500	0.251 to 1	100 to 500	0.251 to 1	0.251 to 1	
COc1cc(C)c(NC(=O)CN(C)C)cc1Nc1nc(Nc2cccc(F)c2C(N)=O)c2cc[nH]c2n1 [Example 257, 2-[(2-{[5-[(N,N-dimethylglycyl)amino]-4-methyl-2-(methyloxy)phenyl]amino}-1H-pyrrolo[2,3-d]pyrimidin-4-yl)amino]-6-fluorobenzamide]	< 100	0.251 to 1	< 100	0.251 to 1	0.251 to 1	
Cc1ccc(NC(=O)CN(C)C)cc1Nc1nc(Nc2ccc(F)cc2C(N)=O)c2cc[nH]c2n1 [Example 62, 2-{[2-({5-[(N,N-dimethylglycyl)amino]-2-methylphenyl}amino)-1H-pyrrolo[2,3-d]pyrimidin-4-yl]amino}-5-fluorobenzamide]	100 to 500	5.01 to 200	100 to 500	1.26 to 3.98	0.251 to 1	
COc1cc(N2CCN(CC(C)C)CC2)ccc1Nc1nc(Nc2cc(F)ccc2C(N)=O)c2cc[nH]c2n1 [Example 80, 4-fluoro-2-{[2-({2-(methyloxy)-4-[4-(2-methylpropyl)-1-piperazinyl]phenyl}amino)-1H-pyrrolo[2,3-d]pyrimidin-4-yl]amino}benzamide]	< 100	0.251 to 1	100 to 500	1.26 to 3.98	0.251 to 1	
CCCN1CCC=C(c2ccc(Nc3nc(Nc4ccccc4C(=O)NC)c4cc[nH]c4n3)c(OC)c2)C1 [Example 23, N-methyl-2-[(2-{[2-(methyloxy)-4-(1-propyl-1,2,5,6-tetrahydro-3-pyridinyl)phenyl]amino}-1H-pyrrolo[2,3-d]pyrimidin-4-yl)amino]benzamide]	100 to 500	0.251 to 1	100 to 500	1.26 to 3.98	0.251 to 1	

Now from value to compound:

IC50 [1] [nM]	IC50 [2] [nM]	IC50 [3] [nM]	IC50 [4] [nM]	IC50 [5] [nM]	IC50 [6] [nM]	Structure (SMILES)
< 100	0.251 to 1	< 100	1.26 to 3.98	1.26 to 3.98		CNC(=O)c1c(F)cccc1Nc1nc(Nc2cc3c(cc2OC)C[C@H](C)N3C(=O)CN(C)C)nc2[nH]ccc12 [Example 251, 2-[(2-{[(2S)-1-(N,N-dimethylglycyl)-2-methyl-5-(methyloxy)-2,3-dihydro-1H-indol-6-yl]amino}-1H-pyrrolo[2,3-d]pyrimidin-4-yl)amino]-6-fluoro-N-methylbenzamide]
100 to 500	1.26 to 3.98	100 to 500	1.26 to 3.98		250 to 1000	CNC(=O)c1cc(F)ccc1Nc1nc(Nc2ccc(N3CCN(C(C)C)CC3)cc2OC)nc2[nH]ccc12 [Example 65, 5-fluoro-N-methyl-2-[(2-{[4-[4-(1-methylethyl)-1-piperazinyl]-2-(methyloxy)phenyl]amino}-1H-pyrrolo[2,3-d]pyrimidin-4-yl)amino]benzamide]
> 500	1.26 to 3.98	> 500	5.01 to 200		< 250	COc1cc(N2CCN(C(C)C)CC2)ccc1Nc1nc(Nc2ccc(F)cc2C(=O)NCCO)c2cc[nH]c2n1 [Example 66, 5-fluoro-N-(2-hydroxyethyl)-2-[(2-{[4-[4-(1-methylethyl)-1-piperazinyl]-2-(methyloxy)phenyl]amino}-1H-pyrrolo[2,3-d]pyrimidin-4-yl)amino]benzamide]
100 to 500	1.26 to 3.98	100 to 500	1.26 to 3.98	1.26 to 3.98		CCCN1CCCC(c2ccc(Nc3nc(Nc4cccc(OC)c4C(N)=O)c4cc[nH]c4n3)c(OC)c2)C1 (stereo not drawn) [Example 36, 2-(methyloxy)-6-[(2-{[2-(methyloxy)-4-(1-propyl-3-piperidinyl)phenyl]amino}-1H-pyrrolo[2,3-d]pyrimidin-4-yl)amino]benzamide]
100 to 500	1.26 to 3.98	100 to 500	1.26 to 3.98	0.251 to 1		Cc1ccc(NC(=O)CN2CCCC2)cc1Nc1nc(Nc2ccccc2C(N)=O)c2cc[nH]c2n1 [Example 14, 2-{[2-({2-methyl-5-[(1-pyrrolidinylacetyl)amino]phenyl}amino)-1H-pyrrolo[2,3-d]pyrimidin-4-yl]amino}benzamide]
< 100	0.251 to 1	100 to 500	0.251 to 1	0.251 to 1		CNC(=O)c1c(F)cccc1Nc1nc(Nc2cc(NC(=O)CN(C)C)c(C)cc2OC)nc2[nH]ccc12 [Example 256, 2-[(2-{[5-[(N,N-dimethylglycyl)amino]-4-methyl-2-(methyloxy)phenyl]amino}-1H-pyrrolo[2,3-d]pyrimidin-4-yl)amino]-6-fluoro-N-methylbenzamide]
100 to 500	0.251 to 1	100 to 500	0.251 to 1	0.251 to 1		CCCN1CCC=C(c2ccc(Nc3nc(Nc4ccc(Cl)cc4C(N)=O)c4cc[nH]c4n3)c(OC)c2)C1 [Example 108, 5-chloro-2-[(2-{[2-(methyloxy)-4-(1-propyl-1,2,5,6-tetrahydro-3-pyridinyl)phenyl]amino}-1H-pyrrolo[2,3-d]pyrimidin-4-yl)amino]benzamide]

— US7981903B2, “2-[2-{phenylamino}-1H-pyrrolo[2,3-D]pyrimidin-4-yl)amino] benzamide derivatives as IGF-1R inhibitors for the treatment of cancer” (GlaxoSmithKline LLC, priority 2007, dated 2011)
